Reference: US20110081315A1, “NOVEL MACROCYCLIC INHIBITORS OF HEPATITIS C VIRUS REPLICATION” (INTERMUNE, INC., priority 2009, published 2011)
pEC50, pIC50: −log10 of the molar value. Read-outs that look alike come from different tables or passages of the source.

Tests used:
hepatitis C replicon = hepatitis C replicon EC50 assay; type: cell-based; details: Hepatitis C virus
In short: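 Enzyme IC50: NS3/NS4 complex, 23° C.; buffer Tris-HCl 50 mM pH 7.5 / glycerol 15% / DTT 10 mM / LDAO 0.6 mM / NS4A peptide 25 μM. Cellular: HCV replicon EC50.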

NS3/NS4 complexes = NS3/NS4 complexes (Hepatitis C virus genotype 1a, UniProt P27958); test: NS3/NS4 inhibition assay (IC50); type: biochemical; details: NS3/NS4 activity; 23° C., 25 μM NS4A peptide
NS3/NS4 complexes, sequence (P27958 1027-1657, one chain of several): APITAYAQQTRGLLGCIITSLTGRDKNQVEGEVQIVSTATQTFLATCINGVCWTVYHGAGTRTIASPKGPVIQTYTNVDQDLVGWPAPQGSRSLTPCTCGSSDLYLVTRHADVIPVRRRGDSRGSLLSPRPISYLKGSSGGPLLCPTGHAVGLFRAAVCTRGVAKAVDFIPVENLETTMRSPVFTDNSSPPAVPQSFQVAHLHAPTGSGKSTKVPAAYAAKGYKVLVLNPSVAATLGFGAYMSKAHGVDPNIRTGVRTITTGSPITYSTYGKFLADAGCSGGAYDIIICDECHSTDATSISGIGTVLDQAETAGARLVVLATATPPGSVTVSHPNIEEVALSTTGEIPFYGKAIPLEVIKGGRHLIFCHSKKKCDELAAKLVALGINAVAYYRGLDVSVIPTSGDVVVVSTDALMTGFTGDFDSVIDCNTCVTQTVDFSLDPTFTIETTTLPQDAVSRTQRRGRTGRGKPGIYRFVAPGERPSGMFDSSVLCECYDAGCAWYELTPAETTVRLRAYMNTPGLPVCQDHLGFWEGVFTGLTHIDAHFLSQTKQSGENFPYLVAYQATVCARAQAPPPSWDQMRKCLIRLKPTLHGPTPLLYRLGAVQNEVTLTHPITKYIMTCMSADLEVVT
In short: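 Read-outs are IC50 for inhibition of the NS3/NS4 complex and EC50 in an HCV replicon system. Biochemical runs use 23° C. and a 50 mM Tris-HCl (pH 7.5) buffer with 15% glycerol, 10 mM DTT, 0.6 mM LDAO and 25 μM NS4A peptide.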

[1] = hepatitis C replicon, read-out: EC50

| SMILES | pEC50 (hepatitis C replicon; [1]) | pIC50 (NS3/NS4 complexes) | pEC50 (hepatitis C replicon) |
| --- | --- | --- | --- |
| CC(C)n1c(O[C@@H]2C[C@H]3C(=O)N[C@]4(C(=O)NS(=O)(=O)N5CCC5)C[C@H]4/C=C\CCCCC[C@H](NC(=O)OC(C)(C)C)C(=O)N3C2)nc2c(-c3nc(C4CCCC4)cs3)cccc21 [Compound 1745] | 7.00 to 8.00 | > 8.00 | – |
| CC(C)n1c(O[C@@H]2C[C@H]3C(=O)N[C@]4(C(=O)NS(=O)(=O)C5(C)CC5)C[C@H]4/C=C\CCCCC[C@H](NC(=O)OC(C)(C)C)C(=O)N3C2)nc2c(-c3csc(-c4cc(F)cc(F)c4)n3)cccc21 [Compound 1703] | 7.00 to 8.00 | > 8.00 | – |
| Cn1cnc2cc(O[C@@H]3C[C@H]4C(=O)N[C@]5(C(=O)NS(=O)(=O)C6(C)CC6)C[C@H]5/C=C\CCCCC[C@H](NC(=O)OC(C)(C)C)C(=O)N4C3)ccc21 [Compound 295] | < 7.00 | > 8.00 | – |
| CC(C)n1c(O[C@@H]2C[C@H]3C(=O)N[C@]4(C(=O)NS(=O)(=O)C5CC5)C[C@H]4/C=C\CCCCC[C@H](NC(=O)OC(C)(C)C)C(=O)N3C2)nc2c(-c3cc(C(F)(F)F)nn3C)cccc21 [Compound 222] | > 8.00 | > 8.00 | – |
| CC(C)n1c(O[C@@H]2C[C@H]3C(=O)N[C@]4(C(=O)NS(=O)(=O)C5(C)CC5)C[C@H]4/C=C\CCCCC[C@H](NC(=O)OC(C)(C)C)C(=O)N3C2)nc2c(-c3nc4c(s3)CCCC4(C)C)cccc21 [Compound 1774] | 7.00 to 8.00 | > 8.00 | – |
| COc1ccc2c(O[C@@H]3C[C@H]4C(=O)N[C@]5(C(=O)NS(=O)(=O)C6(C)CC6)C[C@H]5/C=C\CCCCC[C@H](Nc5cccc(C(=O)N6CCN(c7ncccn7)CC6)c5)C(=O)N4C3)cc(-c3nc(C(C)C)cs3)nc2c1C [Compound 125] | > 8.00 | > 8.00 | – |
| CC(C)n1c(O[C@@H]2C[C@H]3C(=O)N[C@]4(C(=O)NS(=O)(=O)N(C)C)C[C@H]4/C=C\CCCCC[C@H](NC(=O)OC(C)(C)C)C(=O)N3C2)nc2c(NC(=O)Nc3ccccc3)cccc21 [Compound 1420] | – | > 8.00 | > 8.00 |
| CC(C)n1c(O[C@@H]2C[C@H]3C(=O)N[C@]4(C(=O)NS(=O)(=O)C5(C)CC5)C[C@H]4/C=C\CCCCC[C@H](NC(=O)OC(C)(C)C)C(=O)N3C2)nc2c(-c3nc(CC4CCCCC4)cs3)cccc21 [Compound 1773] | > 8.00 | > 8.00 | – |
| CC(C)(C)OC(=O)N[C@H]1CCCCC/C=C\[C@@H]2C[C@@]2(C(=O)NS(=O)(=O)C2CC2)NC(=O)[C@@H]2C[C@@H](Oc3ncc4ncn(Cc5ccccc5)c4n3)CN2C1=O [Compound 506] | < 7.00 | > 8.00 | – |
| CC(C)n1c(O[C@@H]2C[C@H]3C(=O)N[C@]4(C(=O)NS(=O)(=O)C5(C)CC5)C[C@H]4/C=C\CCCCC[C@H](NC(=O)OC(C)(C)C)C(=O)N3C2)nc2c(-c3nc(C4CCCC4)cs3)cccc21 [Compound 1402] | > 8.00 | > 8.00 | – |
| CC(C)c1nc(-c2cccc3c2nc(O[C@@H]2C[C@H]4C(=O)N[C@]5(C(=O)NS(=O)(=O)N(C)C)C[C@H]5/C=C\CCCCC[C@H](NC(=O)OC(C)(C)C)C(=O)N4C2)n3C(C)C)sc1C(C)C [Compound 1201] | < 7.00 | > 8.00 | – |
| CC(C)n1c(O[C@@H]2C[C@H]3C(=O)N[C@]4(C(=O)NS(=O)(=O)C5(C)CC5)C[C@H]4/C=C\CCCCC[C@H](Nc4ccc(F)cc4)C(=O)N3C2)nc2c(-c3nc(C4CCCC4)cs3)cccc21 [Compound 1728] | < 7.00 | > 8.00 | – |
| CN(C)S(=O)(=O)NC(=O)[C@@]12C[C@H]1/C=C\CCCCC[C@H](NC(=O)OC(C)(C)C)C(=O)N1C[C@H](Oc3ccc4c(ccn4C)c3)C[C@H]1C(=O)N2 [Compound 701] | < 7.00 | > 8.00 | – |
| CC(C)n1c(O[C@@H]2C[C@H]3C(=O)N[C@]4(C(=O)NS(=O)(=O)N(C)C)C[C@H]4/C=C\CCCCC[C@H](NC(=O)OC(C)(C)C)C(=O)N3C2)nc2c(-c3csc(C(C)(C)C)n3)cccc21 [Compound 1743] | 7.00 to 8.00 | > 8.00 | – |
| CC(C)n1c(O[C@@H]2C[C@H]3C(=O)N[C@]4(C(=O)NS(=O)(=O)N(C)C)C[C@H]4/C=C\CCCCC[C@H](NC(=O)OC(C)(C)C)C(=O)N3C2)nc2c(-c3nc4c(s3)CCCC4(C)C)cccc21 [Compound 1775] | 7.00 to 8.00 | > 8.00 | – |
| CC(C)(C)OC(=O)N[C@H]1CCCCC/C=C\[C@@H]2C[C@@]2(C(=O)NS(=O)(=O)C2(C)CC2)NC(=O)[C@@H]2C[C@@H](Oc3ccc4c(c3)ncn4-c3ccccc3)CN2C1=O [Compound 294] | < 7.00 | > 8.00 | – |
| CCCN1CCN(C(=O)c2cccc(N[C@H]3CCCCC/C=C\[C@@H]4C[C@@]4(C(=O)NS(=O)(=O)C4(C)CC4)NC(=O)[C@@H]4C[C@@H](Oc5cc(-c6nc(C(C)C)cs6)nc6c(C)c(OC)ccc56)CN4C3=O)c2)CC1 [Compound 113] | > 8.00 | > 8.00 | – |
| COc1ccc2c(O[C@@H]3C[C@H]4C(=O)N[C@]5(C(=O)NS(=O)(=O)C6(C)CC6)C[C@H]5/C=C\CCCCC[C@H](Nc5cccc(C(=O)N6CCNCC6)c5)C(=O)N4C3)cc(-c3nc(C(C)C)cs3)nc2c1C [Compound 107] | > 8.00 | > 8.00 | – |

| SMILES | pEC50 (hepatitis C replicon; [1]) | pIC50 (NS3/NS4 complexes) | pEC50 (hepatitis C replicon) |
| --- | --- | --- | --- |
| CCn1cnc2ccc(O[C@@H]3C[C@H]4C(=O)N[C@]5(C(=O)NS(=O)(=O)C6(C)CC6)C[C@H]5/C=C\CCCCC[C@H](NC(=O)OC(C)(C)C)C(=O)N4C3)cc21 [Compound 298] | < 7.00 | > 8.00 | – |
| CC(C)n1c(O[C@@H]2C[C@H]3C(=O)N[C@]4(C(=O)NS(=O)(=O)C5(C)CC5)C[C@H]4/C=C\CCCCC[C@H](NC(=O)OC(C)(C)C)C(=O)N3C2)nc2c(-c3nccs3)cccc21 [Compound 234] | > 8.00 | > 8.00 | – |
| COc1ccc2c(O[C@@H]3C[C@H]4C(=O)N[C@]5(C(=O)NS(=O)(=O)C6(C)CC6)C[C@H]5/C=C\CCCCC[C@H](NC(=O)N5CCCC5)C(=O)N4C3)cc(-c3nc(C(C)C)cs3)nc2c1C [Compound 1733] | > 8.00 | > 8.00 | – |
| COc1ccc2c(O[C@@H]3C[C@H]4C(=O)N[C@]5(C(=O)NS(=O)(=O)C6(C)CC6)C[C@H]5/C=C\CCCCC[C@H](Nc5cccc(C(=O)N6CCN(C(C)c7ccccc7)CC6)c5)C(=O)N4C3)cc(-c3nc(C(C)C)cs3)nc2c1C (stereo partly shown) [Compound 116] | 7.00 to 8.00 | > 8.00 | – |
| CC(C)n1c(O[C@@H]2C[C@H]3C(=O)N[C@]4(C(=O)NS(=O)(=O)C5(C)CC5)C[C@H]4/C=C\CCCCC[C@H](NC(=O)OC(C)(C)C)C(=O)N3C2)nc2c(-c3csc(N4CCCCC4)n3)cccc21 [Compound 1706] | > 8.00 | > 8.00 | – |
| CN(C)S(=O)(=O)NC(=O)[C@@]12C[C@H]1/C=C\CCCCC[C@H](NC(=O)OC(C)(C)C)C(=O)N1C[C@H](Oc3cnc4ccccc4n3)C[C@H]1C(=O)N2 [Compound 301] | 7.00 to 8.00 | > 8.00 | – |
| CC(C)n1c(O[C@@H]2C[C@H]3C(=O)N[C@]4(C(=O)NS(=O)(=O)C5(C)CC5)C[C@H]4/C=C\CCCCC[C@H](NC(=O)OC(C)(C)C)C(=O)N3C2)nc2c(-c3nc(C4CCCCC4)cs3)cccc21 [Compound 1769] | > 8.00 | > 8.00 | – |
| CC(C)n1c(O[C@@H]2C[C@H]3C(=O)N[C@]4(C(=O)NS(=O)(=O)C5(C)CC5)C[C@H]4/C=C\CCCCC[C@H](NC(=O)O[C@@H]4C[C@@H]5C[C@@H]5C4)C(=O)N3C2)nc2c(-c3nc(-c4ccccc4)cs3)cccc21 [Compound 1731] | > 8.00 | > 8.00 | – |
| COc1cccc2c1nc(O[C@@H]1C[C@H]3C(=O)N[C@]4(C(=O)NS(=O)(=O)C5(C)CC5)C[C@H]4/C=C\CCCCC[C@H](Nc4ccccc4)C(=O)N3C1)n2C(C)C [Compound 285] | > 8.00 | > 8.00 | – |
| CC(C)n1c(O[C@@H]2C[C@H]3C(=O)N[C@]4(C(=O)NS(=O)(=O)C5(C)CC5)C[C@H]4/C=C\CCCCC[C@H](NC(=O)OC4CCCC4)C(=O)N3C2)nc2c(-c3nc(C4CCCC4)cs3)cccc21 [Compound 1412] | > 8.00 | > 8.00 | – |
| CC(C)n1c(O[C@@H]2C[C@H]3C(=O)N[C@]4(C(=O)NS(=O)(=O)N(C)C)C[C@H]4/C=C\CCCCC[C@H](NC(=O)OC(C)(C)C)C(=O)N3C2)nc2c(-c3nc(Cc4ccc(F)cc4)cs3)cccc21 [Compound 1759] | > 8.00 | > 8.00 | – |
| CC(C)n1c(O[C@@H]2C[C@H]3C(=O)N[C@]4(C(=O)NS(=O)(=O)C5(C)CC5)C[C@H]4/C=C\CCCCC[C@H](Nc4ccccc4)C(=O)N3C2)nc2c(-c3ccccc3)cccc21 [Compound 203] | 7.00 to 8.00 | > 8.00 | – |
| COc1ccc2c(O[C@@H]3C[C@H]4C(=O)N[C@]5(C(=O)NS(=O)(=O)C6(C)CC6)C[C@H]5/C=C\CCCCC[C@H](Nc5ccc(OC(F)(F)F)c(F)c5)C(=O)N4C3)cc(-c3nc(C(C)C)cs3)nc2c1C (single isomer, unassigned) [Compound 602] | 7.00 to 8.00 | > 8.00 | – |
| CC(C)n1c(O[C@@H]2C[C@H]3C(=O)N[C@]4(C(=O)NS(=O)(=O)C5(C)CC5)C[C@H]4/C=C\CCCCC[C@H](Nc4ccccc4)C(=O)N3C2)nc2c(N)cccc21 [Compound 1408] | 7.00 to 8.00 | > 8.00 | – |
| CC(C)n1c(O[C@@H]2C[C@H]3C(=O)N[C@]4(C(=O)NS(=O)(=O)N(C)C)C[C@H]4/C=C\CCCCC[C@H](NC(=O)OC(C)(C)C)C(=O)N3C2)nc2c(-c3ccccc3)cccc21 [Compound 210] | > 8.00 | > 8.00 | – |
| CC(C)n1c(O[C@@H]2C[C@H]3C(=O)N[C@]4(C(=O)NS(=O)(=O)C5(C)CC5)C[C@H]4/C=C\CCCCC[C@H](NC(=O)OC4COC4)C(=O)N3C2)nc2c(-c3nc(C4CCCC4)cs3)cccc21 [Compound 1414] | > 8.00 | > 8.00 | – |
| CC(C)n1c(O[C@@H]2C[C@H]3C(=O)N[C@]4(C(=O)NS(=O)(=O)N(C)C)C[C@H]4/C=C\CCCCC[C@H](NC(=O)OC(C)(C)C)C(=O)N3C2)nc2c(-c3csc(N4CCCCC4)n3)cccc21 [Compound 1742] | 7.00 to 8.00 | > 8.00 | – |
